Read-outs that look alike come from different tables or passages of the source.

The experiment concerns the target T1, HCV NS3-4A protease (Hepatitis C virus genotype 1a, UniProt P27958).
T1 construct: HCV NS3-4A protease
Briefly: HCV NS3-4A protease assay in vitro (FRET-S substrate). It is filed as biochemical. The protocol:
HCV NS3-4A Protease Assay In Vitro.
The assay was conducted in Buffer A containing 30 mM NaCl, 5 mM CaCl2, 10 mM DTT, 50 mM Tris (pH7.8), using the Ac-Asp-Glu-Asp(EDANS)-Glu-Glu-Abu-ψ-[COO]-Ala-Ser-Lys (DABCYL)-NH2 (FRET-S) fluorescent peptide (AnaSpec, USA) as substrate. Briefly, 140 μL buffer A, 20 μL compounds dissolved in buffer A with different concentration and 20 μL HCV NS3-4A protease diluted in buffer A were added into 96-well plate respectively and mixed well. The reaction was initiate with adding 20 μL of FRET-S. Reactions were continuously monitored at 37° C. using a BMG Polarstar Galaxy (MTX Lab Systems, Inc. USA), with excitation and emission filters of 355 nm and 520 nm, respectively. The 50% inhibitory concentration (IC50) was calculated with Reed & Muench methods.

The mark [1] stands for this setting: HCV NS3-4A protease inhibition, 37° C., class symbols, read-out: NS3-NS4A IC50.

T1 sequence (P27958 1027-1657): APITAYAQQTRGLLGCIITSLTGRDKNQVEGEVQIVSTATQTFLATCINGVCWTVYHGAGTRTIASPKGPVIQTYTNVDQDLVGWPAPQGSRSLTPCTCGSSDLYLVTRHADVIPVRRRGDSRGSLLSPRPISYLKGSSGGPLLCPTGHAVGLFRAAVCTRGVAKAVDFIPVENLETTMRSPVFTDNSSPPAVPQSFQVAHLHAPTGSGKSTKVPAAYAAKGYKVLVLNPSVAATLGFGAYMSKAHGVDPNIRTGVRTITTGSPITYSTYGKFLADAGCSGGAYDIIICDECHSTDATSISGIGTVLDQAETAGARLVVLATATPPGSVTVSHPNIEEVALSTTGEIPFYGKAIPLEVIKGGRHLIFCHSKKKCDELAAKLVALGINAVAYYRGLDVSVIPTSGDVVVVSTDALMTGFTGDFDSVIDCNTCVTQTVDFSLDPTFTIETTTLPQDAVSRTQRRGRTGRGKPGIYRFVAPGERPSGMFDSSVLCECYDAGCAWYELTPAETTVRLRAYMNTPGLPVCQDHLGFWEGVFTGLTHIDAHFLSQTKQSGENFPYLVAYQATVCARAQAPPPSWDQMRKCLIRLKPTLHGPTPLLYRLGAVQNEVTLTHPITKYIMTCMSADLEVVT
T1 sequence (P27958 1658-1711): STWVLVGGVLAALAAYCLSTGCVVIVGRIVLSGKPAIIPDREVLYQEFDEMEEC

With `CC(C)S(=O)(=O)NC(=O)[C@@]12C[C@H]1/C=C\CCCCC[C@H](NC(=O)OC(C)(C)C)C(=O)N1C[C@H](OC(=O)N3Cc4cc5c(cc4C3)OCO5)C[C@H]1C(=O)N2` [Compound 12h], under setting [1], the IC50 was under 0.03 µM.
Consider `C=C[C@H]1C[C@@]1(NC(=O)C1C[C@@H](OC(=O)N2Cc3ccc4c(c3C2)OCO4)CN1C(=O)[C@@H](NC(=O)[C@@H](NC(=O)c1cnccn1)C1CCCCC1)C(C)(C)C)C(=O)NS(=O)(=O)C1CC1` (stereo partly shown) [Compound 30e], for which the IC50 was under 0.03 µM.
Regarding `CC[C@H]1C[C@@]1(NC(=O)C1C[C@@H](OC(=O)N2Cc3cc4c(cc3C2)OCCCO4)CN1C(=O)[C@@H](NC(=O)[C@@H](NC(=O)OC(C)(C)C)C1CCCCC1)C(C)(C)C)C(=O)NS(=O)(=O)C1CC1` (stereo partly shown) [Compound 30ad], the IC50 was 0.03 to 0.2 µM.
Take `CC(C)(C)OC(=O)N[C@H]1CCCCC/C=C\[C@@H]2C[C@@]2(C(=O)O)NC(=O)[C@@H]2C[C@@H](OC(=O)N3Cc4ccc5c(c4C3)OCO5)CN2C1=O` [Compound 11a]: the 50% inhibitory concentration (IC50) under setting [1] is over 0.2 µM.
On the same count and under the same terms, as for `O=C1N[C@]2(C(=O)NS(=O)(=O)C3CC3)C[C@H]2/C=C\CCCCC[C@H](Nc2cccc(F)c2)C(=O)N2C[C@H](OC(=O)N3Cc4cc5c(cc4C3)OCO5)C[C@@H]12` [Compound 15b], the figure is under 0.03 µM; as for `CN1CCCCC/C=C\[C@@H]2C[C@@]2(C(=O)NS(=O)(=O)C2CC2)NC(=O)[C@@H]2C[C@@H](OC(=O)N3Cc4cc5c(cc4C3)OCO5)CC2C1=O` (stereo partly shown) [Compound 21e], under 0.03 µM; as for `CC(C)(C)OC(=O)N[C@H]1CCCCC/C=C\[C@@H]2C[C@@]2(C(=O)O)NC(=O)[C@@H]2C[C@@H](OC(=O)N3Cc4cc5c(cc4C3)OCCO5)CN2C1=O` [Compound 11c], over 0.2 µM.
On the same count and under the same terms, as for `CC(C)(C)OC(=O)N[C@H]1CCCCC/C=C\[C@@H]2C[C@@]2(C(=O)NS(=O)(=O)C2CC2)NC(=O)[C@@H]2C[C@@H](OC(=O)N3Cc4ccc5c(c4C3)OCO5)CN2C1=O` [Compound 12a], the figure is under 0.03 µM.
With `O=C1N[C@]2(C(=O)NS(=O)(=O)C3CC3)C[C@H]2/C=C\CCCCC[C@H](N2CCCS2(=O)=O)C(=O)N2C[C@H](OC(=O)N3Cc4cc5c(cc4C3)OCO5)C[C@@H]12` [Compound 12k], the concentration for half-maximal inhibition (IC50) under setting [1] is under 0.03 µM.
The same measure, in the same setting: as for `CN1CCCC/C=C\[C@@H]2C[C@@]2(C(=O)NS(=O)(=O)C2CC2)NC(=O)[C@@H]2C[C@@H](OC(=O)N3Cc4cc5c(cc4C3)OCO5)CC2C1=O` (stereo partly shown) [Compound 21c], the figure is under 0.03 µM.
The same measure, in the same setting: next, `CC(C)(C)OC(=O)N[C@H]1CCCCC/C=C\[C@@H]2C[C@@]2(C(=O)NS(=O)(=O)C2CC2)NC(=O)[C@@H]2C[C@@H](OC(=O)N3Cc4ccc5c(c4C3)OCCO5)CN2C1=O` [Compound 12b]: under 0.03 µM; `CC[C@H]1C[C@@]1(NC(=O)C1C[C@@H](OC(=O)N(C)Cc2ccc3c(c2)OCO3)CN1C(=O)[C@@H](NC(=O)OC1CCCC1)C(C)(C)C)C(=O)NS(=O)(=O)C1CC1` (stereo partly shown) [Compound 30ap]: under 0.03 µM.
`CCOC(=O)N[C@H](C(=O)N[C@H](C(=O)N1C[C@H](OC(=O)N2Cc3cc4c(cc3C2)OCO4)CC1C(=O)N[C@@]1(C(=O)NS(=O)(=O)C2CC2)C[C@@H]1CC)C(C)(C)C)C1CCCCC1` (stereo partly shown) [Compound 30v] returned an IC50 of under 0.03 µM.

By IC50 is commonly meant the concentration at which inhibition is half-maximal.
